{"source": "patent US20150335696A1", "about": "“METHODS OF DEGRADING AGEs AND USES THEREOF” (ARKRAY, Inc., priority 2014, published 2015)", "assay": "AGEs-degrading activity: cleavage of AGEs crosslink model substance PPD, released benzoic acid measured by HPLC", "format": "biochemical", "description": "In the present example, AGEs-degrading activities of plant extracts were evaluated with 1-phenyl-1,2-propanedione (PPD) as an index.\nThe AGEs-degrading activity was evaluated by measuring the cleavage reaction of crosslinks in AGEs. Specifically, the evaluation was carried out in the following manner on the basis of the method described in Vasan et al. (Vasan S, et al., An agent cleaving glucose-derived protein crosslinks in vitro and in vivo. 1996. Nature; 382: pp. 275-278).\nAs a model substance for crosslinks in AGEs, 1-phenyl-1,2-propanedione (PPD) was used. A degradation reaction was caused by each extract sample with PPD as a substrate. More specifically, a reaction solution having the following composition was obtained by mixing the components in an Eppendorf tube, and the resultant mixture was incubated at 37° C. for 8 hours (n=3). […] The amount of benzoic acid released by the degradation of PPD in the supernatant was measured by HPLC carried out under the following conditions. Also, the amount of benzoic acid inherently contained in the extract sample was measured by HPLC carried out under the same conditions. Furthermore, as a positive control regarding the cleavage of crosslinks, the amount of released benzoic acid was measured in the same manner, except that 500 μL of 10 mmol/L phenacylthiazolium bromide (PTB) was used instead of the extract sample. […]", "data": [{"smiles": "O=C(C[n+]1ccsc1)c1ccccc1.[Br-]", "note": "[PTB, phenacylthiazolium bromide]", "values": [{"measurement": "Relative activity Mean ± SD (%)", "setting": "AGEs crosslink cleavage ratio relative to positive control PTB = 100%", "result": 100.0, "unit": "%"}, {"measurement": "AGEs crosslink cleavage ratio Mean ± SD (%)", "setting": "PPD substrate, 37° C. for 8 hours, n=3, molar benzoic acid produced / molar PPD (B/P)", "result": "38.2 ± 0.7", "unit": "%"}]}]}
